In patent US11365203B2, “Fluorescent dye and preparation method and use thereof” (Fluorescence Diagnosis (shanghai) Biotech Company Ltd., priority 2016, dated 2022):

Columns and labels:
Assay type in all cases: physicochemical
[1] = Fluorescence emission spectra of molecular rotors in glycerin and methanol; settings: for Maximum Emission Wavelength: 1×10^−5 M in glycerin and methanol, excited at maximum excitation wavelength of each dye; for Fluorescence Intensity Ratios in Glycerol/Methanol: 1×10^−5 M, glycerol vs methanol solution
Procedure: The fluorescent dyes (molecular rotors) prepared in Examples 1-68 were separately dissolved in dimethyl sulfoxide to prepare respectively a mother liquor having a concentration of 1×10^−2 M, and each of the mother liquors was added individually to glycerin and methanol, and mixed uniformly, thereby solutions of a final concentration of 1×10^−5 M were prepared individually. According to the different fluorescent dyes, the fluorescence emission spectra of the fluorescent dyes were detected with the maximum excitation wavelengths of respective fluorescent dyes successively under the same conditions.

[2] = Fluorescence emission intensity in dichloromethane and methanol (polarity response); settings: 1×10^−5 M; dichloromethane vs methanol; 25° C.
Procedure: Molecular Rotors 1, 2, 3, 22, 57, 63 were added to dichloromethane and methanol respectively to prepare a solution with a final concentration of 1×10^−5 M. Then, the solution was excited individually by excitation wavelengths of 480 nm, 480 nm and 500 nm at 25° C. to detect their fluorescence emission intensities in two different polar solvents.

[3] = Fluorescence emission in ethylene glycol-glycerol mixed solutions of different viscosities; settings: 1×10^−5 M, 16.4-946.0 cp; for Emission wavelength: excited at 480 nm; for Viscosity response of fluorescence intensity: log intensity vs log viscosity linear
Procedure: Molecular Rotors 1, 2, 3, 22, 57, and 63 were added to ethylene glycol-glycerol mixed solutions having viscosities of 16.4 cp, 29.8 cp, 64.5 cp, 143.5 cp, 377.0 cp, and 946.0 cp to prepare a solution with a final concentration of 1×10^−5 M. The solution was excited at 480 nm. The fluorescence emission spectra at different viscosities were shown in FIGS. 1, 4, 7, 10, 13, and 16. Emission wavelengths of the molecular rotors were 555 nm, 590 nm, 610 nm, 570 nm, 559 nm, and 675 nm, respectively.

Compound | Maximum Emission Wavelength [1] [nm] | Fluorescence Intensity Ratios in Glycerol/Methanol [1] | Polarity response of fluorescence intensity [2] | Emission wavelength [3] [nm] | Viscosity response of fluorescence intensity [3]
2-[2-cyano-2-(2-benzoxazole)-vinyl]-5-didecylamino-thieno[3,2,b]thiophene [Molecular Rotor 2] | 590 | 1183 | insensitive to the polarity change | 590 | sensitive to viscosity
CN(C)c1cc2sc(/C=C(\C#N)C(=O)OC(C)(C)C)cc2s1 [Molecular Rotor 1, 2-(2-cyano-2-tert-butyl formatevinyl)-5-dimethylamino-thieno[3,2,b]thiophene] | 555 | 790 | insensitive to the polarity change | 555 | sensitive to viscosity
CN(CCO)c1cc2sc(/C=C(\C#N)c3nc4ccccc4s3)cc2s1 [Molecular Rotor 3, 2-[2-cyano-2-(1,3-benzothiazol-2-yl)-vinyl]-5-(N-methyl-N-hydroxyethyl)-thieno[3,2,b]thiophene] | 610 | 1455 | insensitive to the polarity change | 610 | sensitive to viscosity
CN(C)c1ccc2cc(/C=C(\C#N)C(=O)OC(C)(C)C)sc2c1 [Molecular Rotor 22] | 570 | 989 | insensitive to the polarity change | 570 | sensitive to viscosity
COCCOCCOCCOCCOCCN(C)c1ccc2c(c1)sc1cc(/C=C(\C#N)c3nc4ccccc4o3)sc12 [Molecular Rotor 38] | 650 | 623 |  |  | 
CN(CCC#N)c1ccc2c(c1)sc1cc(/C=C(\C#N)c3nc4ccccc4s3)sc12 [Molecular Rotor 39] | 667 | 541 |  |  | 
CCCCN(CCO)c1ccc2c(c1)sc1cc(/C=C3/N=C(c4ccccc4)N(C)C3=O)sc12 [Molecular Rotor 40] | 659 | 652 |  |  | 
CN(C)c1cc2cc3sc(C=C(C#N)C#N)cc3cc2s1 [Molecular Rotor 41] | 558 | 875 |  |  | 
CCCCCCCCCCN(CCCCCCCCCC)c1cc2cc3sc(/C=C(\C#N)C(=O)OC(C)(C)C)cc3cc2s1 [Molecular Rotor 42] | 558 | 924 |  |  | 
CN(CCO)c1cc2cc3sc(/C=C(\C#N)c4nc5ccccc5o4)cc3cc2s1 [Molecular Rotor 43] | 582 | 816 |  |  | 
CNc1cc2cc3sc(/C=C(\C#N)c4nc5ccccc5s4)cc3cc2s1 [Molecular Rotor 44] | 603 | 631 |  |  | 
COCCOCCOCCOCCOCCN(C)c1cc2cc3sc(/C=C4/N=C(C)N(C)C4=O)cc3cc2s1 [Molecular Rotor 45] | 585 | 812 |  |  | 
COCCNC(=O)/C(C#N)=C/c1cc2cc3sc(N4CCCC4)cc3cc2s1 [Molecular Rotor 46] | 563 | 712 |  |  | 
CN(CCC#N)c1cc2cc3sc(/C=C(\C#N)C(=O)O)cc3cc2s1 [Molecular Rotor 47] | 561 | 912 |  |  | 
CN(CCO)c1cc2cc3cc(C=C(C#N)C#N)sc3cc2s1 [Molecular Rotor 48] | 562 | 608 |  |  | 
CN(CCOCCCS(=O)(=O)O)c1cc2cc3cc(/C=C(\C#N)C(=O)OC(C)(C)C)sc3cc2s1 [Molecular Rotor 49] | 559 | 612 |  |  | 
CC1=N/C(=C/c2cc3cc4cc(N(CCO)CCO)sc4cc3s2)C(=O)N1C [Molecular Rotor 50] | 587 | 777 |  |  | 

Compound | Maximum Emission Wavelength [1] [nm] | Fluorescence Intensity Ratios in Glycerol/Methanol [1] | Polarity response of fluorescence intensity [2] | Emission wavelength [3] [nm] | Viscosity response of fluorescence intensity [3]
CNc1cc2cc3cc(/C=C4/N=C(c5ccccc5)N(C)C4=O)sc3cc2s1 [Molecular Rotor 51] | 599 | 535 |  |  | 
COCCOCCOCCOCCOCCN(C)c1cc2cc3cc(/C=C(\C#N)c4nc5ccccc5o4)sc3cc2s1 [Molecular Rotor 52] | 578 | 680 |  |  | 
CN(CCC#N)c1cc2cc3cc(/C=C(\C#N)c4nc5ccccc5s4)sc3cc2s1 [Molecular Rotor 53] | 599 | 915 |  |  | 
COCCNC(=O)/C(C#N)=C/c1cc2cc3cc(N4CCOCC4)sc3cc2s1 [Molecular Rotor 54] | 563 | 722 |  |  | 
COCCNC(=O)/C(C#N)=C/c1cc2cc3cc(N4CCOCC4)sc3cc2s1 [Molecular Rotor 55] | 562 | 466 |  |  | 
CN(C)c1cc2c(s1)-c1sc(C=C(C#N)C#N)cc1[Si]2(C)C [Molecular Rotor 56] | 655 | 591 |  |  | 
CN(CCO)c1cc2c(s1)-c1sc(/C=C(\C#N)C(=O)OC(C)(C)C)cc1[Si]2(C)C [Molecular Rotor 57] | 659 | 884 | insensitive to the polarity change | 559 | sensitive to viscosity
C[Si]1(C)c2cc(/C=C(\C#N)C(=O)O)sc2-c2sc(N(CCO)CCO)cc21 [Molecular Rotor 58] | 656 | 683 |  |  | 
CNc1cc2c(s1)-c1sc(/C=C(\C#N)C(=O)OC(C)(C)C)cc1[Si]21CCC1 [Molecular Rotor 60] | 637 | 812 |  |  | 
CN(CCC#N)c1cc2c(s1)-c1sc(/C=C(\C#N)c3nc4ccccc4o3)cc1[Si]21CCC1 [Molecular Rotor 61] | 691 | 816 |  |  | 
CN(CCO)c1cc2c(s1)-c1sc(/C=C(\C#N)c3nc4ccccc4s3)cc1[Si]21CCC1 [Molecular Rotor 62] | 715 | 759 |  |  | 
CN(C)c1cc2c(s1)c1sc(/C=C(\C#N)C(=O)OC(C)(C)C)cc1n2C [Molecular Rotor 63] | 675 | 516 | insensitive to the polarity change | 675 | sensitive to viscosity
CN(C)c1cc2c(s1)-c1sc(/C=C(\C#N)C(=O)OC(C)(C)C)cc1C2(C)C [Molecular Rotor 65] | 645 | 591 |  |  | 
CN(C)c1cc2c(s1)-c1sc(/C=C(\C#N)c3nc4ccccc4o3)cc1C2(C)C [Molecular Rotor 66] | 670 | 623 |  |  | 
CN(CCO)c1cc2c(s1)-c1sc(/C=C(\C#N)c3nc4ccccc4s3)cc1C2(C)C [Molecular Rotor 67] | 690 | 789 |  |  | 
CN(CCO)c1cc2c(s1)-c1sc(/C=C(\C#N)C(=O)O)cc1C2(C)C [Molecular Rotor 68] | 648 | 953 |  |  | 
